Experiments:
[1] = Absorption of SAMe salts in rats: areas under the SAMe plasmatic concentration curves (AUC); type: in vivo, Sprague Dawley male rats; settings: 100 mg of active principle per kg, mean of 5 observations, extrapolated to infinity, 100 mg/kg; for AUC, intestinal administration: introduced into proximal jejunum; for AUC, oral administration: oral administration by gastric probe
Method: The absorption was studied on 110 Sprague Dawley male rats of weight 210 g which had fasted since the previous evening.
The products are administered in solution or in a 2% gum arabic aqueous suspension.
For each product, 5 rats are operated under ether anesthesia to allow the substance under examination to be introduced into the proximal jejunum. The wall incision is closed by ligature, and the animals sutured.
The product is administered to a further 5 animals orally by means of a gastric probe.
A blood sample is withdrawn from the caudal vein at the commencement and at 10, 20, 40, 60, 90, 120, 180 and 240 minutes after administration, and the SAMe concentration is determined on the sample by the modified method of Baldessarini and Kopin (J. Neurochem. 13: 769, 1966).
The plasmatic concentration values less the initial values are plotted against time and the areas under the time curves to infinity calculated by the trapezium and curve extrapolation method.
Areas under the SAMe plasmatic concentration curves (AUC) for rats treated intestinally and orally with the listed products at a dosage corresponding to 100 mg of active principle per kg of body weight. The values represent the mean of 5 observations.

[2] = Solubility in water and organic solvents; settings: water

Structure (SMILES)	AUC, intestinal administration [1]	AUC, oral administration [1]	solubility [2]
C[S+](CC[C@H](N)C(=O)[O-])C[C@H]1O[C@@H](n2cnc3c(N)ncnc32)[C@H](O)[C@@H]1O (some centres unmarked) [Example S16, SAMe tri hexadecanesulphonate]	25300 N moles · ml^-1 × min	9600 N moles · ml^-1 × min	–
C[S+](CC[C@H](N)C(=O)[O-])C[C@H]1O[C@@H](n2cnc3c(N)ncnc32)[C@H](O)[C@@H]1O (some centres unmarked) [Example S14, SAMe tri tetradecanesulphonate]	26800 N moles · ml^-1 × min	9800 N moles · ml^-1 × min	–
C[S+](CC[C@H](N)C(=O)[O-])C[C@H]1O[C@@H](n2cnc3c(N)ncnc32)[C@H](O)[C@@H]1O (some centres unmarked) [SAMe SO4 -PTS, SAMe disulphatep-toluenesulphonate, reference compound]	6700 N moles · ml^-1 × min	990 N moles · ml^-1 × min	–
C[S+](CC[C@H](N)C(=O)[O-])C[C@H]1O[C@@H](n2cnc3c(N)ncnc32)[C@H](O)[C@@H]1O (some centres unmarked) [Example S18, SAMe tri octadecanesulphonate]	24100 N moles · ml^-1 × min	9400 N moles · ml^-1 × min	–
C[S+](CC[C@H](N)C(=O)[O-])C[C@H]1O[C@@H](n2cnc3c(N)ncnc32)[C@H](O)[C@@H]1O (some centres unmarked) [Example S1, SAMe tri methanesulphonate, reference compound]	4400 N moles · ml^-1 × min	870 N moles · ml^-1 × min	–
C[S+](CC[C@H](N)C(=O)[O-])C[C@H]1O[C@@H](n2cnc3c(N)ncnc32)[C@H](O)[C@@H]1O (some centres unmarked) [DBS, SAMe tri dodecylbenzenesulphonate]	17000 N moles · ml^-1 × min	7800 N moles · ml^-1 × min	–
C[S+](CC[C@H](N)C(=O)[O-])C[C@H]1O[C@@H](n2cnc3c(N)ncnc32)[C@H](O)[C@@H]1O (some centres unmarked) [DSS, SAMe tri dioctylsulphosuccinate]	18500 N moles · ml^-1 × min	8000 N moles · ml^-1 × min	–
C[S+](CC[C@H](N)C(=O)[O-])C[C@H]1O[C@@H](n2cnc3c(N)ncnc32)[C@H](O)[C@@H]1O (some centres unmarked) [Example S12, SAMe tri dodecanesulphonate]	25500 N moles · ml^-1 × min	9700 N moles · ml^-1 × min	–
C[S+](CC[C@H](N)C(=O)[O-])C[C@H]1O[C@@H](n2cnc3c(N)ncnc32)[C@H](O)[C@@H]1O (some centres unmarked) [Example S6, SAMe tri hexanesulphonate, reference compound]	6900 N moles · ml^-1 × min	980 N moles · ml^-1 × min	–
C[S+](CC[C@H](N)C(=O)[O-])C[C@H]1O[C@@H](n2cnc3c(N)ncnc32)[C@H](O)[C@@H]1O (some centres unmarked) [Example S012, SAMe tri laurylsulphate]	20800 N moles · ml^-1 × min	8900 N moles · ml^-1 × min	–
CCCCCCCCCCCCCCS(=O)(=O)[O-].[Na+]	–	–	10000 µg/mL
C[S+](CC[C@H](N)C(=O)[O-])C[C@H]1O[C@@H](n2cnc3c(N)ncnc32)[C@H](O)[C@@H]1O (some centres unmarked) [Example S5, SAMe tri pentanesulphonate, reference compound]	4900 N moles · ml^-1 × min	950 N moles · ml^-1 × min	–
